Measurements from patent US11426402B2, “IRE1 activating compounds for use in therapy” (The Scripps Research Institute, priority 2019, dated 2022).

Tests used:
APP = assay: [35S] metabolic labeling of APP in 7PA2 CHO cells; assay type: cell-based
Method: FIGS. 5A-5D. […] Cells were treated for 18 hours, media was then replaced and conditioned in the presence of treatments for 24 hours before harvesting for ELISA assay. Error bars represent SEM for n=3 replicates. Statistics calculated from one-tailed Student's t-test. *p<0.05, **p<0.01, ***p<0.001 (FIG. 5A). Quantification of media and lysate immunoblots from 474 treatment (10 μM) of APP. Error bars represent Standard Deviation for n=3 replicates. Statistics calculated from one-tailed Student's t-test. *p<0.05, **p<0.01 ***p<0.001 (FIG. 5B). […] Statistics calculated from one-tailed Student's t-test. *p<0.05, **p<0.01, ***p<0.001 (FIG. 5C). […] Statistics calculated from one-tailed Student's t-test. *p<0.05, **p<0.01, ***p<0.001 (FIG. 5D).
[^35S] metabolic labeling experiments were performed as previously described^8. […] Band intensities were quantified by densitometry in ImageQuant. Fraction secreted was calculated using the equation: fraction secreted=[extracellular [^35S]-APP signal at t/(extracellular [^35S]-APP signal at t=0+intracellular[^35S]-APP signal at t=0)]. Fraction remaining was calculated using the equation: [(extracellular [^35S]-APP signal at t+intracellular [^35S]-APP signal at t)/(extracellular [^35S]-APP signal at t=0+intracellular [^35S]-APP signal at t=0)].

DNAJB9 = DNAJB9 expression in SHSY5Y cells overexpressing APP SW; assay type: cell-based
[1] = tested on: IRE1-specific target genes; assay: RT-PCR of Xbp1s and Erdj4 in adipose tissue after single IP dose; assay type: in vivo
Text: (§1) FIGS. 7A-7D. RT-PCR of Xbp1s and the IRE1/XBP1s target gene Erdj4 from adipose tissue post single IP dose of 474 (FIG. 7A). Liver RNAseq profiles of ATF6, IRE1 and PERK target genes expressed as log 2 fold change of chronic 474 treatment compared to vehicle (FIG. 7B). Body weight (FIG. 7C) and food intake (FIG. 70) over 6 weeks of dosing.
Obesity has grown into a major public health crisis over the past few decades, enhancing the risk of numerous complications such as type 2 diabetes (T2D). […] of Xbp1, the key transcription factor downstream of IRE1, causes insulin resistance through increased accumulation of ER stress^33. Conversely, overexpression of active Xbp1s in the livers of ob/ob mice restores insulin signaling and reduces gluconeogenesis through the targeted degradation of a key metabolic regulator, FoxO1^55. IRE1 function is also critical in the maintenance of pancreatic β-cell function and glucose stimulated-insulin secretion^56. Although these genetic studies highlight the therapeutic potential of targeting the IRE1-XBP1s signaling axis for T2D and related metabolic disorders, no highly-selective pharmacological IRE1 activators have been available until the present disclosure's provision for screening and optimization of a lead molecule, 474.

IRE1 target genes = assay: Liver RNA sequencing of DIO mice, IRE1 targets; assay type: in vivo, mouse; settings: once-daily IP 50 mg/kg, 6 weeks
Method: as §1
(§2) To test the efficacy of pharmacologic IRE1 activation in mitigating T2D, we chronically administered 474 by once-daily IP injections at 50 mg/kg for a period of 6 weeks to Diet-Induced Obese (DIO) mice, a model of T2D.

ATF6 target genes = assay: Liver RNA sequencing of DIO mice, ATF6 targets; assay type: in vivo, mouse; settings: once-daily IP 50 mg/kg, 6 weeks
Method: as §1, §2

pancreatic islets = assay: Glucose stimulated insulin secretion in islets isolated from treated mice; assay type: in vivo, mouse; settings: relative to vehicle-treated controls
Text: (§3) FIGS. 8A-8E. Oral glucose tolerance test in DIO mice treated with either Vehicle or 474 for 3 weeks (n=8) (FIG. 8A). Serum glucose and insulin levels post 4 weeks of dosing with 474 or vehicle (FIG. 8B). Glucose stimulated insulin secretion in islets isolated from 474 or vehicle treated mice. (FIG. 8C). Hepatic triglyceride content (FIG. 8D) and gene expression profiles of gluconeogenic genes (FIG. 8E) at 6 weeks post dosing.
(§4) This effect can be rationalized, at least in part, by enhanced pancreatic f-cell function in 474-treated […], as shown by our studies in isolated pancreatic islets from vehicle- and 474-treated mice. […] Given the well-documented link between IRE1 and hepatic metabolism in T2D^55, we also examined markers of liver function after 474 treatment. We found reduced liver triglyceride accumulation in 474-treated mice relative to controls (FIG. 80).

liver = assay: Hepatic triglyceride content and gluconeogenic gene expression in DIO mice; assay type: in vivo, mouse; settings: 6 weeks post dosing
Text: as §3, §4

Compound: Cc1ccc(OCCN(C)C(=O)Cn2cc(NC(=O)CCOc3ccccc3)cn2)cc1 [Compound 474]
- APP degradation (APP): increased APP degradation
- secretion of soluble APP into the media (APP): reduced the secretion of soluble APP
- DNAJB9 expression (DNAJB9): further increased
- IRE1-specific target genes in adipose tissue [1]: induction
- bioavailability [1]: readily bioavailable
- Xbp1 splicing in liver (IRE1 target genes): robust Xbp1splicing
- downstream IRE1 targets in liver (IRE1 target genes): selective activation
- ATF6 transcriptional response in liver (ATF6 target genes): modest induction
- insulin secretion from islets upon stimulation with glucose (pancreatic islets): dramatic increase
- expression of genes associated with glucose metabolism in liver (liver): reductions
- liver triglyceride accumulation (liver; relative to controls): reduced
